From ChEMBL document CHEMBL1129183, “Correlation of oxidation potential and toxicity in thiobenzamides” (Bioorg Med Chem Lett, 1996) come the findings set out here.

The series is described as follows: Lethal dose to rats was determined. The format is toxicity. Conditions: rat, in vivo.

`Cc1ccc(C(N)=S)cc1`: the Dose came to 2 mM/kg.

In turn, `COc1ccc(C(N)=S)cc1` displayed a Dose of 2 mM/kg.
